Measurements from patent publication US20190290710A1, “USE OF GLUC[…] TO ENHANCE RECOMBINANT ADENO-[…] YIELD” (priority 2016, published 2019).
Read-outs that look alike come from different tables or passages of the source.

What was measured:
HeLa host cell line [1] = assay type: cell-based
Method: A number of cell culture additives including metals, trace supplements, salts, and others, were tested for their ability to increase production of recombinant adeno-associated virus vector (rAAV) by a HeLa host cell line.

HeLa host cell line [2] = experiment: rAAV yield by qPCR, HeLa host cell line in shaker flasks, glucocorticoid analogs; assay type: cell-based; conditions: shaker flask, 0.1 and 1 μM, 4 days, FIG. 2
Method: FIG. 2 is a bar graph depicting the effect of glucocorticoid analogs on rAAV production from a HeLa producer cell line cultured in a shaker flask. Hydrocortisone (hydr), predinosolone (pred) and dexamethasone (dex) were added at the indicated concentrations and after 4 days rAAV yield (GC/ml) was measured by qPCR. Each value represents the mean of two independent experiments.
DNase-resistant particles (DRP) can be quantified by real-time quantitative polymerase chain reaction (qPCR) (DRP-qPCR) in a thermocycler (for example, an iCycler iQ 96-well block format thermocycler (Bio-Rad, Hercules, Calif.)). Samples containing rAAV particles are incubated in the presence of DNase I (100 U/ml; Promega, Madison, Wis.) at 37° C. for 60 min, followed by proteinase K (Invitrogen, Carlsbad, Calif.) digestion (10 U/ml) at 50° C. for 60 min, and then denatured at 95° C. for 30 min. The primer-probe set used should be specific to a non-native portion of the rAAV vector genome, for example, the poly(A) sequence of the protein of interest. […]
Stock solutions of dexamethasone (dex), prednisolone (pred), and hydrocortisone (hydr) dissolved in DMSO were added to the cell culture to final concentrations of 0.1 and 1 μM. After 4 days, rAAV yield was determined by measuring both the secreted (extracellular) and total rAAV in the cell culture harvest by qPCR.

`[Ca+2]` [calcium] was tested, and the media precipitation (HeLa host cell line [1]; calcium concentrations higher than 0.19 g/L) was “causing media precipitation” and the “impact on rAAV yield” value (HeLa host cell line [1]; supplementation with 0.19 g/L of calcium) was “minimal impact”.

`[Cu]` [copper] was tested, and the “impact on rAAV yield” value (HeLa host cell line [1]; copper concentration increased from 0.1 μM to 10 μM) was “No or minimal impact”.

`C[C@]12CCC(=O)C=C1CC[C@@H]1[C@@H]2[C@@H](O)C[C@@]2(C)[C@H]1CC[C@]2(O)C(=O)CO` [hydrocortisone] was tested, and the “rAAV yield (extracellular and total)” value (HeLa host cell line [2]) was “increased rAAV yield”.

`[Fe]` [iron] was tested, and the “impact on rAAV yield” value (HeLa host cell line [1]; iron concentration increased from 0.1 mg/L to 10 mg/L) was “No or minimal impact”.

With `[Mg+2]` [magnesium] the “impact on rAAV yield” value (HeLa host cell line [1]; magnesium concentration increased from 1 mg/L to 30 mg/L) was “slightly negative impact”.

In the case of `C[C@]12C=CC(=O)C=C1CC[C@@H]1[C@@H]2[C@@H](O)C[C@@]2(C)[C@H]1CC[C@]2(O)C(=O)CO` [prednisolone], the “rAAV yield (extracellular and total)” value (HeLa host cell line [2]) was “increased rAAV yield”.

In the case of `NCCCCN` [putrescine], the “effect on rAAV yield” value (HeLa host cell line [1]) was “negative effect”.

`NCCCNCCCCNCCCN` [spermine] was tested, and the “effect on rAAV yield” value (HeLa host cell line [1]) was “negative effect”.
